# Patent US10221138B2, “Biaryl derivatives as GPR120 agonists” (LG CHEM, LTD., priority 2013, dated 2019)
# Target: T1, hGPR120 (Homo sapiens, UniProt Q5NUL3)
# T1 construct: expressed in transfected cells; host or cells: CHO-K1
# T1 sequence (Q5NUL3 1-361): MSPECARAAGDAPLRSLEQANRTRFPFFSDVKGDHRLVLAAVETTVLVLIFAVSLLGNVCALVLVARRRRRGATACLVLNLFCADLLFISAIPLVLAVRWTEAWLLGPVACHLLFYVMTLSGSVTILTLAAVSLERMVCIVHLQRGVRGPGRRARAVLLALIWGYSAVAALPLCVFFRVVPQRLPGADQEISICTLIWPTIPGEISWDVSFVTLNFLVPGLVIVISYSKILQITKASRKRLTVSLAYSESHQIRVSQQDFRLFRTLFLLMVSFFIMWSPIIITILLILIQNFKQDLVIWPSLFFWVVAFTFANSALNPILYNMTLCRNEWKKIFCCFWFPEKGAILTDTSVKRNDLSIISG
# Assay: Measurement of activity of GPR120 agonist (cell-based calcium fluorescence assay)
# Conditions: CHO-K1 cells expressing Ga16 and hGPR120, Calcium 5 dye fluorescence; activity class; read-out: EC50
# Procedure: CHO-K1 cells expressing Ga16 and hGPR120 were dispensed into each well of a 96-well plate (3×10^4 cells/100 μl/well) and then incubated in 5% CO2, 37° C. incubator for 18 hours. Each well was treated with 100 μl of Calcium 5 dye (Molecular Devices) solution including 2% DMSO and then incubated in 5% CO2, 37° C. incubator for 1 hour. Serially diluted GPR120 agonists were prepared to a final concentration of 0.5% DMSO in a 96-well plate.
# Fluorescence increased by the serially diluted GPR120 agonists is calculated as a relative percent (%) value based on the fluorescence represented by the treatment of 1% DMSO only. […] The calculation of measurement was carried out by using statistical software (Prizm).
# Activity is denoted based on the following criteria: […]
row,EC50,Compound
1,< 200 nM,"O=C(O)CCCCOc1c(F)cc(-c2cccnc2OCC2CCC2)cc1F [Example 196, 5-[4-(2-cyclobutylmethoxy-pyridin-3-yl)-2,6-difluoro-phenoxy]-pentanoic acid]"
2,200 to 2000 nM,"O=C(O)CCCOc1c(F)cc(-c2cccnc2C2CCCC2)cc1F [Example 107, 4-[4-(2-cyclopentyl-3-pyridyl)-2,6-difluoro-phenoxy]butanoic acid]"
3,200 to 2000 nM,"O=C(O)CCCOc1c(F)cc(-c2cccnc2NC2CCCC2)cc1F [Example 73, 4-[4-[2-(cyclopentylamino)-3-pyridyl]-2,6-difluoro-phenoxy]butanoic acid]"
4,200 to 2000 nM,"O=C(O)CCCSc1ccc(-c2cccnc2N2CCCC2)cc1F [Example 173, 4-[2-fluoro-4-(2-pyrrolidin-1-yl-pyridin-3-yl)-phenylsulfanyl]-butyric acid]"
5,< 200 nM,"O=C(O)CCCOc1ccc(-c2ccccc2Oc2ccccc2)cc1 [Example 37, 4-(2′-phenoxy-biphenyl-4-yloxy)-butyric acid]"
6,< 200 nM,"O=C(O)CCCCSc1ccc(-c2cccnc2OC2CCCC2)cc1 [Example 254, 5-[4-(2-cyclopentyloxy-pyridin-3-yl)-phenylsulfanyl]-pentanoic acid]"
7,< 200 nM,"CC(CCC(=O)O)Sc1c(F)cc(-c2cccnc2SC2CCCC2)cc1F (stereo not drawn) [Example 202, 4-[4-(2-cyclopentylsulfanyl-pyridin-3-yl)-2,6-difluoro-phenylsulfanyl]-pentanoic acid]"
8,< 200 nM,"CCCOc1cccc(-c2ccc(SCCCC(=O)O)cc2)n1 [Example 132, 4-[4-(6-propoxy-pyridin-2-yl)-phenylsulfanyl]-butyric acid]"
9,200 to 2000 nM,"O=C(O)CCCSc1ccc(-c2cccnc2OC2CCOC2)cc1F (stereo not drawn) [Example 245, 4-{2-fluoro-4-[2-(tetrahydrofuran-3-yloxy)-pyridin-3-yl]-phenylsulfanyl}-butyric acid]"
10,< 200 nM,"O=C(O)CCCSc1ccc(-c2cccnc2SC2CCCC2)cc1 [Example 149, 4-[4-(2-cyclopentylsulfanyl-pyridin-3-yl)-phenylsulfanyl]-butyric acid]"
11,< 200 nM,"O=C(O)CCCSc1c(F)cc(-c2cccnc2SC2CCC2)cc1F [Example 142, 4-[4-(2-cyclobutylsulfanyl-pyridin-3-yl)-2,6-difluoro-phenylsulfanyl]-butyric acid]"
12,< 200 nM,"CC(CCOc1c(F)cc(-c2cccnc2SC2CCC2)cc1F)C(=O)O (stereo not drawn) [Example 59, 4-[4-(2-cyclobutylsulfanyl-pyridin-3-yl)-2,6-difluoro-phenoxy]-2-methyl-butyric acid]"
13,< 200 nM,"CCCSc1ncccc1-c1cc(F)c(SCCCC(=O)O)c(F)c1 [Example 168, 4-[2,6-difluoro-4-(2-propylsulfanyl-pyridin-3yl)-phenylsulfanyl]-butyric acid]"
14,200 to 2000 nM,"COc1ccc(-c2cc(F)c(SCCCC(=O)O)c(F)c2)c(OC2CCCC2)c1 [Example 184, 4-(2′-cyclopentyloxy-3,5-difluoro-4′-methoxy-biphenyl-4-ylsulfanyl)-butyric acid]"
15,< 200 nM,"O=C(O)CCCSc1ccc(-c2cccnc2OC2CCCC2)cc1 [Example 123, 4-[4-(2-cyclopentyloxy-pyridin-3-yl)-phenylsulfanyl]-butyric acid]"
16,< 200 nM,"O=C(O)CCCOc1c(F)cc(-c2cccnc2CC2CCCC2)cc1F [Example 108, 4-[4-[2-(cyclopentylmethyl)-3-pyridyl]-2,6-difluoro-phenoxy]butanoic acid]"
17,< 200 nM,"O=C(O)CCCCSc1c(F)cc(-c2cccnc2OCC2CCC2)cc1F [Example 260, 5-[4-(2-cyclobutylmethoxy-pyridin-3-yl)-2,6-difluoro-phenylsulfanyl]-pentanoic acid]"
18,< 200 nM,"O=C(O)CCCCOc1c(F)cc(-c2cccnc2SC2CCCC2)cc1F [Example 234, 5-[4-(2-cyclopentylsulfanyl-3-pyridyl)-2,6-difluoro-phenoxy]pentanoic acid]"
19,< 200 nM,"CC(CCC(=O)O)Oc1c(F)cc(-c2cccnc2SC2CCC2)cc1F (stereo not drawn) [Example 28, 4-[4-(2-cyclobutylsulfanyl-3-pyridyl)-2,6-difluoro-phenoxy]pentanoic acid]"
20,< 200 nM,"O=C(O)CCCOc1c(F)cc(-c2ccccc2NC2CCCC2)cc1F [Example 79, 4-[4-[2-(cyclopentylamino)phenyl]-2,6-difluoro-phenoxy]butanoic acid]"

row,EC50,Compound
1,200 to 2000 nM,"O=C(O)CCCCCSc1c(F)cc(-c2cccnc2SC2CCC2)cc1F [Example 278, 6-[4-(2-cyclobutylsulfanyl-pyridin-3-yl)-2,6-difluoro-phenylsulfanyl]-hexanoic acid]"
2,< 200 nM,"CC(C)Sc1cccc(-c2ccc(OCCCC(=O)O)cc2)n1 [Example 210, 4-[4-(6-isopropylsulfanyl-2-pyridyl)phenoxy]butanoic acid]"
3,< 200 nM,"CCCSc1cccc(-c2cc(F)c(SCCCC(=O)O)c(F)c2)n1 [Example 141, 4-[2,6-difluoro-4-(6-propylsulfanyl-pyridin-2-yl)-phenylsulfanyl]-butyric acid]"
4,200 to 2000 nM,"CC(C)Nc1ccccc1-c1ccc(OCCCC(=O)O)cc1 [Example 87, 4-[4-[2-(isopropylamino)phenyl]phenoxy]butanoic acid]"
5,2000 to 20000 nM,"COc1cc(-c2cccnc2SC2CCC2)ccc1OCCCC(=O)O [Example 7, 4-[4-(2-cyclobutylsulfanyl-pyridin-3-yl)-2-methoxy-phenoxy]-butyric acid]"
6,200 to 2000 nM,"CC(C)Oc1ncccc1-c1ccc(SC(C)CCC(=O)O)cc1 (stereo not drawn) [Example 200, 4-[4-(2-isopropoxy-pyridin-3-yl)-phenylsulfanyl]-pentanoic acid]"
7,2000 to 20000 nM,"COCCOc1ncccc1-c1cc(F)c(OCCCC(=O)O)c(F)c1 [Example 71, 4-{2,6-difluoro-4-[2-(2-methoxy-ethoxy)-pyridin-3-yl]-phenoxy}-butyric acid]"
8,> 20000 nM,"CN1CCN(c2ncccc2-c2cc(F)c(OCCCC(=O)O)c(F)c2)CC1 [Example 216, 4-[2,6-difluoro-4-[2-(4-methylpiperazin-1-yl)-3-pyridyl]phenoxy]butanoic acid]"
9,> 20000 nM,"CC(CCC(=O)O)Oc1ccc(-c2cccnc2SC2CCC2)cn1 (stereo not drawn) [Example 30, 4-[[5-(2-cyclobutylsulfanyl-3-pyridyl)-2-pyridyl]oxy]pentanoic acid]"
10,200 to 2000 nM,"CC(C)Oc1ncccc1-c1cc(F)c(SCCCCC(=O)O)c(F)c1 [Example 253, 5-[2,6-difluoro-4-(2-isopropoxy-pyridin-3-yl)-phenylsulfanyl]-pentanoic acid]"
11,< 200 nM,"O=C(O)CCCOc1c(F)cc(-c2cccc(C3CCCC3)c2)cc1F [Example 97, 4-[4-(3-cyclopentylphenyl)-2,6-difluoro-phenoxy]butanoic acid]"
12,200 to 2000 nM,"CC(C)CCSc1ncccc1-c1cc(F)c(OCCCC(=O)O)c(F)c1 [Example 31, 4-{2,6-difluoro-4-[2-(3-methyl-butylsulfanyl)-pyridin-3-yl]-phenoxy}-butyric acid]"
13,200 to 2000 nM,"O=C(O)CCCSc1ccc(-c2cccnc2OCC2CC2)cc1 [Example 124, 4-[4-(2-cyclopropylmethoxy-pyridin-3-yl)-phenylsulfanyl]-butyric acid]"
14,200 to 2000 nM,"CC(C)Oc1ncccc1-c1cc(F)c(OCCCC(=O)O)c(F)c1 [Example 43, 4-[2,6-difluoro-4-(2-isopropoxy-pyridin-3-yl)-phenoxy]-butyric acid]"
15,< 200 nM,"O=C(O)CCCOc1c(F)cc(-c2cccnc2SCC2CC2)cc1F [Example 47, 4-[4-(2-cyclopropylmethylsulfanyl-pyridin-3-yl)-2,6-difluoro-phenoxy]-butyric acid]"
16,200 to 2000 nM,"O=C(O)CCCOc1ccc(-c2ccccc2NC2CCC2)cc1 [Example 88, 4-[4-[2-(cyclobutylamino)phenyl]phenoxy]butanoic acid]"
17,< 200 nM,"O=C(O)CCCSc1c(F)cc(-c2cccc(SC3CCC3)n2)cc1F [Example 158, 4-[4-(6-cyclobutylsulfanyl-pyridin-2-yl)-2,6-difluoro-phenylsulfanyl]-butyric acid]"
18,< 200 nM,"CC(C)Sc1ncccc1-c1cc(F)c(SCCCC(=O)O)c(F)c1 [Example 146, 4-[2,6-difluoro-4-(2-isopropylsulfanyl-pyridin-3-yl)-phenylsulfanyl]-butyric acid]"
19,< 200 nM,"O=C(O)CCCCOc1c(F)cc(-c2cccnc2SC2CCC2)cc1F [Example 233, 5-[4-(2-cyclobutylsulfanyl-3-pyridyl)-2,6-difluoro-phenoxy]pentanoic acid]"
20,200 to 2000 nM,"COc1ccc(-c2ccc(SCCCC(=O)O)c(F)c2)c(OC2CCCC2)c1 [Example 183, 4-(2′-cyclopentyloxy-3-fluoro-4′-methoxy-biphenyl-4-ylsulfanyl)-butyric acid]"

row,Compound,EC50
1,"O=C(O)CCCCSc1c(F)cc(-c2cccnc2OC2CCC2)cc1F [Example 261, 5-[4-(2-cyclobutoxy-pyridin-3-yl)-2,6-difluoro-phenylsulfanyl]-pentanoic acid]",< 200 nM
2,"O=C(O)CCCSc1ccc(-c2cccnc2OC2CCC2)cc1 [Example 143, 4-[4-(2-cyclobutoxy-pyridin-3-yl)-phenylsulfanyl]-butyric acid]",200 to 2000 nM
